Test system: MV-4-11 cells
Experiment: Gene expression microarray analysis (Affymetrix PrimeView) and GSEA
Type: cell-based, human
Design: RFU PODN (11730768_x_at) / Fold change /veh PODN (11730768_x_at) / RFU LINC00158 (11744669_a_at) / Fold change /veh LINC00158 (11744669_a_at) / RFU DUSP10 (11751237_a_at) / Fold change /veh DUSP10 (11751237_a_at) / RFU ID3 (11757404_x_at) / Fold change /veh ID3 (11757404_x_at) / RFU PLEKHG5 (11737974_s_at) / Fold change /veh PLEKHG5 (11737974_s_at) / RFU LRRC4B (11730491_at) / Fold change /veh LRRC4B (11730491_at) / RFU GIMAP4 (11747438_a_at) / Fold change /veh GIMAP4 (11747438_a_at) / RFU KRT8 (11758183_x_at) / Fold change /veh KRT8 (11758183_x_at) / RFU CNN1 (11734310_a_at) / Fold change /veh CNN1 (11734310_a_at) / RFU VPS37D (11726825_at) / Fold change /veh VPS37D (11726825_at) / RFU C10orf10 (11716522_x_at) / Fold change /veh C10orf10 (11716522_x_at) / RFU KIR2DL2 /// KIR2DL4 /// KIR2DL5A /// KIR2DL5B /// KIR2DS1 /// KIR2DS2 /// KIR2DS3 /// KIR2DS4 /// KIR3DL3 /// KIR3DL3 /// KIR3DS1 (11738374_at) / Fold change /veh KIR2DL2 /// KIR2DL4 /// KIR2DL5A /// KIR2DL5B /// KIR2DS1 /// KIR2DS2 /// KIR2DS3 /// KIR2DS4 /// KIR3DL3 /// KIR3DL3 /// KIR3DS1 (11738374_at) / RFU C1QL1 (11718748_at) / Fold change /veh C1QL1 (11718748_at) / RFU TMPRSS4 (11747572_a_at) / Fold change /veh TMPRSS4 (11747572_a_at) / RFU HAMP (11756126_x_at) / Fold change /veh HAMP (11756126_x_at) / RFU RNFT2 (11725882_a_at) / Fold change /veh RNFT2 (11725882_a_at) / RFU NR4A2 (11747474_a_at) / Fold change /veh NR4A2 (11747474_a_at) / RFU ABCC12 (11746883_a_at) / Fold change /veh ABCC12 (11746883_a_at) / RFU TMEM136 (11760407_x_at) / Fold change /veh TMEM136 (11760407_x_at) / RFU CLDN22 /// WWC2 (11732394_at) / Fold change /veh CLDN22 /// WWC2 (11732394_at) / RFU HLA-DPB1 (11760878_x_at) / Fold change /veh HLA-DPB1 (11760878_x_at) / RFU SPINT1 (11716480_a_at) / Fold change /veh SPINT1 (11716480_a_at) / RFU GAP43 (11754022_s_at) / Fold change /veh GAP43 (11754022_s_at) / RFU A4GNT (11735810_at) / Fold change /veh A4GNT (11735810_at) / RFU PRB3 (11715151_x_at) / Fold change /veh PRB3 (11715151_x_at) / RFU TUBB4B (11761932_at) / Fold change /veh TUBB4B (11761932_at) / RFU CAPN14 (11732068_a_at) / Fold change /veh CAPN14 (11732068_a_at) / RFU TMCC2 (11721928_a_at) / Fold change /veh TMCC2 (11721928_a_at) / RFU IRGQ (11745062_a_at) / Fold change /veh IRGQ (11745062_a_at) / RFU FAM174B (11720279_a_at) / Fold change /veh FAM174B (11720279_a_at) / RFU TMPRSS4 (11748680_a_at) / Fold change /veh TMPRSS4 (11748680_a_at) / RFU FAM212B (11763350_a_at) / Fold change /veh FAM212B (11763350_a_at) / RFU PLEKHG5 (11743358_a_at) / Fold change /veh PLEKHG5 (11743358_a_at) / RFU ZSCAN30 (11745921_a_at) / Fold change /veh ZSCAN30 (11745921_a_at) / RFU CMKLR1 (11741424_a_at) / Fold change /veh CMKLR1 (11741424_a_at) / RFU LOC101060620 /// MAPK8IP1 (11723275_at) / Fold change /veh LOC101060620 /// MAPK8IP1 (11723275_at) / RFU SPTSSB (11747773_x_at) / Fold change /veh SPTSSB (11747773_x_at) / RFU PRSS12 (11739890_at) / Fold change /veh PRSS12 (11739890_at) / RFU BIN1 (11741810_x_at) / Fold change /veh BIN1 (11741810_x_at) / RFU WNT11 (11732464_a_at) / Fold change /veh WNT11 (11732464_a_at) / RFU C10orf10 (11716521_a_at) / Fold change /veh C10orf10 (11716521_a_at) / RFU C5orf56 (11738089_at) / Fold change /veh C5orf56 (11738089_at) / RFU CYB561 (11721691_x_at) / Fold change /veh CYB561 (11721691_x_at) / RFU ANKRD19P (11752326_a_at) / Fold change /veh ANKRD19P (11752326_a_at) / RFU OR2T12 /// OR2T33 /// OR2T8 (11738714_s_at) / Fold change /veh OR2T12 /// OR2T33 /// OR2T8 (11738714_s_at) / RFU VCAN (11748164_a_at) / Fold change /veh VCAN (11748164_a_at) / RFU JSRP1 (11732532_at) / Fold change /veh JSRP1 (11732532_at) / RFU KRTAP10-11 (11738290_x_at) / Fold change /veh KRTAP10-11 (11738290_x_at) / RFU MYO3A (11730013_a_at) / Fold change /veh MYO3A (11730013_a_at) / RFU EBF3 (11725865_a_at) / Fold change /veh EBF3 (11725865_a_at) / RFU CAMK2N1 (11719241_x_at) / Fold change /veh CAMK2N1 (11719241_x_at) / RFU C5orf56 (11738088_a_at) / Fold change /veh C5orf56 (11738088_a_at) / RFU OLFML3 (11715873_a_at) / Fold change /veh OLFML3 (11715873_a_at) / RFU LOC100653217 /// NTM (11731650_a_at) / Fold change /veh LOC100653217 /// NTM (11731650_a_at) / RFU MAPK11 (11762145_a_at) / Fold change /veh MAPK11 (11762145_a_at) / RFU FIZ1 (11724087_x_at) / Fold change /veh FIZ1 (11724087_x_at) / RFU OASL (11726364_x_at) / Fold change /veh OASL (11726364_x_at) / RFU SOX15 (11748057_x_at) / Fold change /veh SOX15 (11748057_x_at) / RFU CD79A (11719716_a_at) / Fold change /veh CD79A (11719716_a_at) / RFU HIST1H1D (11736915_at) / Fold change /veh HIST1H1D (11736915_at) / RFU CASKIN2 (11723855_a_at) / Fold change /veh CASKIN2 (11723855_a_at) / RFU LOC730098 (11760151_x_at) / Fold change /veh LOC730098 (11760151_x_at) / RFU OR4N2 (11742367_at) / Fold change /veh OR4N2 (11742367_at) / RFU PRRT2 (11749266_a_at) / Fold change /veh PRRT2 (11749266_a_at) / RFU SNX32 (11753110_a_at) / Fold change /veh SNX32 (11753110_a_at) / RFU CDHR5 (11726645_a_at) / Fold change /veh CDHR5 (11726645_a_at) / RFU RCAN1 (11760418_a_at) / Fold change /veh RCAN1 (11760418_a_at) / RFU FAM167A (11723789_a_at) / Fold change /veh FAM167A (11723789_a_at) / RFU FAM26E (11764081_at) / Fold change /veh FAM26E (11764081_at) / RFU ISYNA1 (11749810_s_at) / Fold change /veh ISYNA1 (11749810_s_at) / RFU ACY1 (11761880_at) / Fold change /veh ACY1 (11761880_at) / RFU 11764098_at / Fold change /veh 11764098_at / RFU SAMD14 (11745864_x_at) / Fold change /veh SAMD14 (11745864_x_at) / RFU NPB (11741838_a_at) / Fold change /veh NPB (11741838_a_at) / RFU TMPRSS6 (11731388_a_at) / Fold change /veh TMPRSS6 (11731388_a_at) / RFU KRTAP10-2 (11738614_at) / Fold change /veh KRTAP10-2 (11738614_at) / RFU ARHGAP8 /// PRR5-ARHGAP8 (11727945_x_at) / Fold change /veh ARHGAP8 /// PRR5-ARHGAP8 (11727945_x_at) / RFU KRTAP5-7 /// NADSYN1 (11734609_at) / Fold change /veh KRTAP5-7 /// NADSYN1 (11734609_at) / RFU RASL12 (11751679_a_at) / Fold change /veh RASL12 (11751679_a_at) / RFU CDKN2B (11736163_a_at) / Fold change /veh CDKN2B (11736163_a_at) / RFU PRF1 (11729649_at) / Fold change /veh PRF1 (11729649_at) / RFU, ZNF638 /// ZNF638-IT1 / Fold change vs veh, ZNF638 /// ZNF638-IT1 / RFU, PANK3 / Fold change vs veh, PANK3 / RFU, SH3YL1 / Fold change vs veh, SH3YL1 / RFU, ZEB2 / Fold change vs veh, ZEB2 / RFU, NRIP1 / Fold change vs veh, NRIP1 / RFU, PTTG1IP / Fold change vs veh, PTTG1IP / RFU, CAPN2 / Fold change vs veh, CAPN2 / RFU, MED14 / Fold change vs veh, MED14 / RFU, SNORA58 / Fold change vs veh, SNORA58 / RFU, C1orf63 / Fold change vs veh, C1orf63 / RFU, LRRFIP1 / Fold change vs veh, LRRFIP1 / RFU, NDUFAF7 / Fold change vs veh, NDUFAF7 / RFU, SLC12A2 / Fold change vs veh, SLC12A2 / RFU, IBTK / Fold change vs veh, IBTK / RFU, ESF1 / Fold change vs veh, ESF1 / Fold change vs veh, TMEM50B / RFU, TAOK1 / Fold change vs veh, TAOK1 / RFU, ACBD3 / Fold change vs veh, ACBD3 / RFU, TMA16 / Fold change vs veh, TMA16 / RFU, RWDD3 / Fold change vs veh, RWDD3 / RFU, BCAT1 / Fold change vs veh, BCAT1 / RFU, EDEM3 / Fold change vs veh, EDEM3 / RFU, TMEM33 / Fold change vs veh, TMEM33 / RFU, WDR75 / Fold change vs veh, WDR75 / RFU, AHCTF1 / Fold change vs veh, AHCTF1 / RFU, TFRC / Fold change vs veh, TFRC / RFU, ZDHHC17 / Fold change vs veh, ZDHHC17 / RFU, NOM1 / Fold change vs veh, NOM1 / RFU, ARL8B / Fold change vs veh, ARL8B / RFU, ZBTB11 / Fold change vs veh, ZBTB11 / RFU, TAMM41 / Fold change vs veh, TAMM41 / RFU, KIAA1704 /// LOC100996395 / Fold change vs veh, KIAA1704 /// LOC100996395 / RFU, ING1 / Fold change vs veh, ING1 / RFU, TRMT61B / Fold change vs veh, TRMT61B / RFU, FUBP3 / Fold change vs veh, FUBP3 / RFU, TP53 / Fold change vs veh, TP53 / RFU, TNKS2 / Fold change vs veh, TNKS2 / RFU, ZFP14 / Fold change vs veh, ZFP14 / RFU, ACTR2 / Fold change vs veh, ACTR2 / RFU, PPP3R1 / Fold change vs veh, PPP3R1 / RFU, PIK3R1 / Fold change vs veh, PIK3R1 / RFU, HNRNPA1 / Fold change vs veh, HNRNPA1 / RFU, RNF170 / Fold change vs veh, RNF170 / RFU, ZNF28 / Fold change vs veh, ZNF28 / RFU, RNGTT / Fold change vs veh, RNGTT / RFU, OGT / Fold change vs veh, OGT / RFU, BRD1 / Fold change vs veh, BRD1 / RFU, MARS / Fold change vs veh, MARS / RFU, ZNF655 / Fold change vs veh, ZNF655 / RFU, FAHD1 / Fold change vs veh, FAHD1 / RFU, BDP1 / Fold change vs veh, BDP1 / RFU, LRRCC1 / Fold change vs veh, LRRCC1 / RFU, ARID1A / Fold change vs veh, ARID1A / RFU, ZNF146 / Fold change vs veh, ZNF146 / RFU, ZNF330 / Fold change vs veh, ZNF330 / RFU, GPN3 / Fold change vs veh, GPN3 / RFU, C9orf123 / Fold change vs veh, C9orf123 / RFU, N4BP2L2 / Fold change vs veh, N4BP2L2 / RFU, ARFIP1 / Fold change vs veh, ARFIP1 / RFU, FAM179B / Fold change vs veh, FAM179B / RFU, BCL10 / Fold change vs veh, BCL10 / RFU, UHRF1BP1L / Fold change vs veh, UHRF1BP1L / RFU, BET1 / Fold change vs veh, BET1 / RFU, CNOT2 / Fold change vs veh, CNOT2 / RFU, ZNF268 / Fold change vs veh, ZNF268 / Fold change vs veh, ZNF507 / RFU, DGCR2 / Fold change vs veh, DGCR2 / RFU, WDSUB1 / Fold change vs veh, WDSUB1 / Fold change vs veh, HSP90B1 /// MIR3652 / RFU, ADSS / Fold change vs veh, ADSS / RFU, GK / Fold change vs veh, GK / RFU, ZNF148 / Fold change vs veh, ZNF148 / RFU, TAF9 / Fold change vs veh, TAF9 / RFU, SLC1A5 / Fold change vs veh, SLC1A5 / RFU, SLMO2 / Fold change vs veh, SLMO2 / RFU, ABCC4 / Fold change vs veh, ABCC4 / RFU, LOC101060439 /// RAP1B / Fold change vs veh, LOC101060439 /// RAP1B / RFU, RFX7 / Fold change vs veh, RFX7 / RFU, GTPBP10 / Fold change vs veh, GTPBP10 / RFU, CNEP1R1 / Fold change vs veh, CNEP1R1 / RFU, BIVM-ERCC5 /// ERCC5 / Fold change vs veh, BIVM-ERCC5 /// ERCC5 / RFU, ILF3 / Fold change vs veh, ILF3 / RFU 11762660_at / Fold change /veh 11762660_at / RFU VCAN (11757783_s_at) / Fold change /veh VCAN (11757783_s_at) / RFU DDX43 (11728927_at) / Fold change /veh DDX43 (11728927_at) / RFU KRT8 (11758188_x_at) / Fold change /veh KRT8 (11758188_x_at) / RFU NKD1 (11759106_at) / Fold change /veh NKD1 (11759106_at) / RFU SRD5A1 (11742802_a_at) / Fold change /veh SRD5A1 (11742802_a_at) / RFU TPSAB1 /// TPSB2 (11721975_s_at) / Fold change /veh TPSAB1 /// TPSB2 (11721975_s_at) / RFU GSTM3 (11746129_a_at) / Fold change /veh GSTM3 (11746129_a_at) / RFU IL23R (11737362_x_at) / Fold change /veh IL23R (11737362_x_at) / RFU TMEM51 (11727254_a_at) / Fold change /veh TMEM51 (11727254_a_at) / RFU PIWIL2 (11732686_x_at) / Fold change /veh PIWIL2 (11732686_x_at) / RFU ORM1 (11744905_x_at) / Fold change /veh ORM1 (11744905_x_at) / RFU CCDC152 (11743942_at) / Fold change /veh CCDC152 (11743942_at) / RFU ECM1 (11717891_a_at) / Fold change /veh ECM1 (11717891_a_at) / RFU IL23R (11748794_a_at) / Fold change /veh IL23R (11748794_a_at) / RFU TNFAIP8L3 (11732012_x_at) / Fold change /veh TNFAIP8L3 (11732012_x_at) / RFU MBOAT4 (11741988_at) / Fold change /veh MBOAT4 (11741988_at) / RFU 11764193_at / Fold change /veh 11764193_at / RFU TMEM53 (11763286_at) / Fold change /veh TMEM53 (11763286_at) / RFU MAGEB2 (11727129_at) / Fold change /veh MAGEB2 (11727129_at) / RFU TMEM200A (11744735_a_at) / Fold change /veh TMEM200A (11744735_a_at) / RFU CCDC152 (11751479_a_at) / Fold change /veh CCDC152 (11751479_a_at) / RFU FAM211A (11726209_a_at) / Fold change /veh FAM211A (11726209_a_at) / RFU RGS16 (11746705_a_at) / Fold change /veh RGS16 (11746705_a_at) / RFU VCAN (11755009_s_at) / Fold change /veh VCAN (11755009_s_at) / RFU RHOB (11743442_s_at) / Fold change /veh RHOB (11743442_s_at) / RFU RGS16 (11720943_a_at) / Fold change /veh RGS16 (11720943_a_at) / RFU RGS16 (11720944_at) / Fold change /veh RGS16 (11720944_at) / RFU, VPS4B / Fold change vs veh, VPS4B / RFU, CREB1 / Fold change vs veh, CREB1 / RFU, DNAJC13 / Fold change vs veh, DNAJC13 / RFU, GNAQ / Fold change vs veh, GNAQ / RFU, CDK5R1 / Fold change vs veh, CDK5R1 / RFU, ZRANB3 / Fold change vs veh, ZRANB3 / RFU, CUL4A / Fold change vs veh, CUL4A / RFU, CCNY / Fold change vs veh, CCNY / RFU, UFL1 / Fold change vs veh, UFL1 / RFU, COG3 / Fold change vs veh, COG3 / RFU, DIAPH2 / Fold change vs veh, DIAPH2 / RFU, SKA2 / Fold change vs veh, SKA2 / RFU, AFF3 / Fold change vs veh, AFF3 / RFU, LMF1 / Fold change vs veh, LMF1 / RFU, IPO11 / Fold change vs veh, IPO11 / RFU, DFFB / Fold change vs veh, DFFB / RFU, FOXP1 / Fold change vs veh, FOXP1 / RFU, CARD8 / Fold change vs veh, CARD8 / RFU, STRN3 / Fold change vs veh, STRN3 / RFU, ADK / Fold change vs veh, ADK / RFU, RASSF2 / Fold change vs veh, RASSF2 / RFU, WIPF1 / Fold change vs veh, WIPF1 / RFU, LARP1B / Fold change vs veh, LARP1B / RFU, RASA1 / Fold change vs veh, RASA1 / RFU, RB1 / Fold change vs veh, RB1 / RFU, PPFIA1 / Fold change vs veh, PPFIA1 / RFU, MAT2A / Fold change vs veh, MAT2A / RFU, CCT5 / Fold change vs veh, CCT5 / RFU, WDR92 / Fold change vs veh, WDR92 / RFU, CUX1 / Fold change vs veh, CUX1 / RFU, TTC7A / Fold change vs veh, TTC7A / RFU, TMEM135 / Fold change vs veh, TMEM135 / RFU, DEPTOR / Fold change vs veh, DEPTOR / RFU, CPM / Fold change vs veh, CPM / RFU, DNAJB6 / Fold change vs veh, DNAJB6 / RFU, CACNA2D3 / Fold change vs veh, CACNA2D3 / RFU, DTX4 / Fold change vs veh, DTX4 / RFU, TFCP2 / Fold change vs veh, TFCP2 / RFU, GMCL1 /// GMCL1P1 / Fold change vs veh, GMCL1 /// GMCL1P1 / RFU, AEBP2 / Fold change vs veh, AEBP2 / RFU, SNHG1 /// SNORD22 /// SNORD25 /// SNORD26 /// SNORD27 /// SNORD28 /// SNORD29 /// SNORD31 / Fold change vs veh, SNHG1 /// SNORD22 /// SNORD25 /// SNORD26 /// SNORD27 /// SNORD28 /// SNORD29 /// SNORD31 / Fold change (Aza/veh), C12orf56 (ProbeSet 11735607_a_at) / Fold change (ACY-1035/veh), C12orf56 (ProbeSet 11735607_a_at) / Fold change (Aza/veh), FGFR1OP (ProbeSet 11751329_s_at) / Fold change (ACY-1035/veh), FGFR1OP (ProbeSet 11751329_s_at) / Fold change (Aza/veh), VPS36 (ProbeSet 11739960_a_at) / Fold change (ACY-1035/veh), VPS36 (ProbeSet 11739960_a_at) / RFU SYPL1 (11715823_x_at) / Fold change /veh SYPL1 (11715823_x_at) / RFU IGFBP7 (11715501_s_at) / Fold change /veh IGFBP7 (11715501_s_at) / RFU REEP3 (11722064_at) / Fold change /veh REEP3 (11722064_at) / RFU IGLL1 (11728026_x_at) / Fold change /veh IGLL1 (11728026_x_at): dose or concentration left out as unconfirmed
Conditions: ProbeSet 11716891_at; LIST B

SMILES: Nc1ncn([C@@H]2O[C@H](CO)[C@@H](O)[C@H]2O)c(=O)n1 [azacitidine]
- Fold change vs veh, C9orf123: 1.12
